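Dose response: 5 concentrations. Exposure: 48 h. Format: 96-well plates. Endpoint: linear interpolation; highest concentration if not reached. GI50 is the concentration that inhibits growth by half. TGI denotes the concentration required for complete inhibition of growth.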
Key:
Assay in all cases: NCI-60 cell line screen, 48 h
SNB-75 CNS = tested on: SNB-75 CNS
HOP-62 NSCLC = tested on: HOP-62 NSCLC
A498 renal = tested on: A498 renal
MDA-MB-435 = tested on: MDA-MB-435
HOP-92 NSCLC = tested on: HOP-92 NSCLC
SK-MEL-2 melanoma = tested on: SK-MEL-2 melanoma
SW-620 colon = tested on: SW-620 colon
KM12 colon = tested on: KM12 colon
A549 NSCLC = tested on: A549 NSCLC
NCI-H522 lung = tested on: NCI-H522 lung

SMILES	GI50 (SNB-75 CNS)	TGI (SNB-75 CNS)	GI50 (HOP-62 NSCLC)	TGI (HOP-62 NSCLC)	GI50 (A498 renal)	TGI (A498 renal)	GI50 (MDA-MB-435)	TGI (MDA-MB-435)	GI50 (HOP-92 NSCLC)	TGI (HOP-92 NSCLC)	GI50 (SK-MEL-2 melanoma)	TGI (SK-MEL-2 melanoma)	GI50 (SW-620 colon)	TGI (SW-620 colon)	GI50 (KM12 colon)	TGI (KM12 colon)	GI50 (A549 NSCLC)	TGI (A549 NSCLC)	GI50 (NCI-H522 lung)	TGI (NCI-H522 lung)
Cc1cc(C)c2nc(Nc3nc(C)c(C)c(=O)[nH]3)nc(C)c2c1	2.9 µM	13.6 µM	1.96 µM	8.82 µM	2.02 µM	5.54 µM	3.13 µM	13.2 µM	2.48 µM	9.11 µM	2.27 µM	7.09 µM	3.12 µM	15.5 µM	3.02 µM	23.9 µM	2.27 µM	5.92 µM	1.63 µM	6.33 µM
CCCCC#Cc1c(I)n(C2OC(CO[Si](C)(C)C(C)(C)C)C3OC(C)(C)OC32)c(=O)[nH]c1=O (stereo not given)	12.1 µM	24.9 µM	20 µM	34.7 µM	13.3 µM	26 µM	14.6 µM	29.8 µM	3.04 µM	8.08 µM	1.37 µM	3.58 µM	1.8 µM	4.15 µM	11.7 µM	24.5 µM	16.6 µM	34.2 µM	0.534 µM	1.95 µM
COC(=O)C1=C(O)C(C(=O)OC)[C@@]2(O)[C@@H](C(=O)OC)C(c3ccccc3C(F)(F)F)C[C@@H]1[C@@H]2C(=O)OC (stereo not given in full)	0.0935 µM	1.53 µM	20.4 µM	36.4 µM	3.05 µM	7.62 µM	2.06 µM	4.53 µM	15.8 µM	37.9 µM	19.7 µM	36.4 µM	4.02 µM	20.1 µM	16.9 µM	32.8 µM	10.4 µM	27 µM	16.8 µM	33.2 µM

Reference: PubChem BioAssay (NCI)
